In patent publication US20140249084A1, “PTH-CONTAINING THERAPEUTIC/PROPHYLACTIC AGENT FOR OSTEOPOROSIS, CHARACTERIZED IN THAT PTH IS ADMINISTERED ONCE A WEEK IN A UNIT DOSE OF 100 TO 200 UNITS” (ASAHI KASEI PHARMA CORPORATION, priority 2009, published 2014):

Assays:
[1] = tested on: high-risk patients diagnosed with primary osteoporosis; experiment: CT geometry of the femur (multislice CT), Working Example 2; type: in vivo, human; settings: 200 units once a week
Protocol: For the CT geometry, the proximal part of the femur was measured at the start and after 48 and 72 weeks using multislice CT scan.
The effects of the test drug on three parts of the femur (neck of the femur, trochanter, and shaft of the femur) were studied using ordinary CT scans.

[2] = tested on: patients diagnosed with primary osteoporosis; experiment: Lumbar spine bone mineral density by DXA, Working Example 1 (5 or 100 units once a week); type: in vivo, human; settings: low-risk patients, only one patient
Protocol: (§1) Both the 5 and 100 unit groups were administered two tablets of a calcium agent (containing 500 mg of precipitated calcium carbonate [200 mg as calcium] per tablet) once a day.
(§2) The osteoporosis patients were classified as condition shown in Table 1 based on the bone fracture risk factors present, as in Non-patent Reference 13, and compared. High-risk patients were defined as having all three factors involving age, prevalent vertebral fractures, and bone density or bone atrophy; low-risk patients were defined as other than the above.

[3] = tested on: high-risk patients diagnosed with primary osteoporosis; experiment: Worsening vertebral fractures, Working Example 2; type: in vivo, human; settings: FAS, 200 units once a week
Description: The vertebral fractures in the present invention also include both new fractures and worsening fractures. […] New and worsening [fractures] can be classified by the grade increase pattern according to the criteria of Genant. Concretely speaking, a fracture is diagnosed as a new fracture when a change is found from grade 0 to grade 1, 2, or 3. It can be regarded as a worsening fracture when a change is found from grade 1 to grade 2 or 3 or from grade 2 to grade 3. The vertebral height was measured according to the method of Inoue et al. (Non-patent reference 35) and the method of Hayashi et al. (Non-patent Reference 36) to accurately assess the changes in grade.
(§3) The incidence of bone fractures was checked by frontal and lateral x-rays of the fourth thoracic to the fourth lumbar spine taken at the start and every 24 weeks thereafter.

[4] = in vivo
Description: The incidence of adverse events was studied after administering the test drug to the a group of osteoporosis patients having normal renal function, a group of osteoporosis patients having mild renal dysfunction, and a group of osteoporosis patients having moderate renal dysfunction.

[5] = tested on: patients diagnosed with primary osteoporosis; experiment: Fractures at sites other than the vertebrae (roentgen films), Working Example 1; type: in vivo, human; settings: fractures of sites other than the vertebrae
Protocol: as §1, §2

[6] = in vivo; remark: listed apart in the source
[7] = tested on: high-risk patients diagnosed with primary osteoporosis; experiment: New vertebral fractures (incl. multiple), Working Example 2 (200 units once a week vs placebo, 72 weeks); type: in vivo, human; settings: for New vertebral fractures: Incidence (%) / New vertebral fractures: No. of subjects: 72 weeks; for No. with fractures: new vertebral fractures
Description: The above patients also took two tablets of a calcium agent once a day after dinner. […] The preparation contained precipitated calcium carbonate, magnesium carbonate, cholecalciferol (vitamin D3), and the like as components and is marketed under the trade name New Calcichew (trademark) D3″ (sold by: Daiichi Sankyo Health Care, manufactured and sold by: Nitto Pharmaceutical Industries, Ltd.).
The numbers of patients administered the test drug and control were 290 (also sometimes referred to as the test drug group in the working example) and 288 (also sometimes referred to as the control group in the working example), respectively. The total number administered was 578. However, the number in each group sometimes differs depending on the type of test and is expressed, for example, by (n=**) or the number evaluated, or the like.
as §3
Here, “multiple vertebral fractures” was defined as two or more new vertebral fractures. When the incidence of multiple vertebral fractures (number of cases) was compared in the test drug group (n=261) and control group (n=281) after 72 weeks of administration, it was 2.1% (6 cases) in the control group and 0.8% (2 cases) in the test drug group.

[8] = tested on: high-risk patients diagnosed with primary osteoporosis; experiment: Vertebral fractures (new+worsening), Kaplan-Meier estimation, Working Example 2; type: in vivo, human; settings: after 72 weeks; FAS; 200 units once a week
Description: as §3
The incidence of vertebral fractures (new±worsening) after 72 weeks by Kaplan-Meier estimation in the FAS of the fracture study was 3.5% in the PTH200 group and 16.3% in the P group. The incidence with 200 units of this drug was lower than in the placebo group (log rank test, p<0.0001). […] When the six-month vertebral fracture (new+worsening) incidence was compared between groups, the incidence of the PTH200 group was lower than that of the P group in all divisions consisting of within 24 weeks, 24 to 48 weeks, and 48 to 72 weeks.

[9] = No. of fractures: Five or more, 200 units once a week
[10] = No. of fractures: Four, 200 units once a week
[11] = No. of fractures: One, 200 units once a week
[12] = No. of fractures: Three, 200 units once a week
[13] = No. of fractures: Two, 200 units once a week
[14] = history of Alfacalcidol, 200 units once a week
[15] = history of Calcitriol, 200 units once a week
[16] = history of Calcium L-aspartate, 200 units once a week
[17] = history of Calcium lactate, 200 units once a week
[18] = history of Elcatonin, 200 units once a week
[19] = history of Menatetrenone, 200 units once a week
[20] = history of Raloxifene hydrochloride, 200 units once a week
[21] = patients taking glucocorticoid, 200 units once a week
[22] = two or more new vertebral fractures, after 72 weeks, 200 units once a week

Substance: teriparatide acetate
- Volume bone mineral density (cortical bone) [vBMD cortical], change from baseline after 48 weeks (%) ([1]; Neck of femur): −0.77%
- Volume bone mineral density (total) [vBMD total], change from baseline after 48 weeks (%) ([1]; Neck of femur): 0.92%
- Volume bone mineral density (total) [vBMD total], change from baseline after 72 weeks (%) ([1]; Neck of femur): 0.15%
- Volume bone mineral density (cortical bone) [vBMD cortical], change from baseline after 48 weeks (%) ([1]; Shaft of femur): 0.59%
- Volume bone mineral density (cortical bone) [vBMD cortical], change from baseline after 72 weeks (%) ([1]; Shaft of femur): 0.18%
- Maximum section modulus (SM (Z min)), change from baseline after 72 weeks (%) ([1]; Trochanter): 3.20%
- Volume bone mineral density (cortical bone) [vBMD cortical], change from baseline after 48 weeks (%) ([1]; Trochanter): −0.49%
- Volume bone mineral density (total) [vBMD total], change from baseline after 72 weeks (%) ([1]; Trochanter): 0.95%
- Lumbar spine bone mineral density (% change) ([2]; After 26 W): 3.2%
- Lumbar spine bone mineral density (% change) ([2]; After 52 W): 6.1%
- Lumbar spine bone mineral density (% change) ([2]; After 78 W): 12.0%
- Lumbar spine bone mineral density (% change) ([2]; Final check): 12.0%
- Difference between test drug group and control group after 72 W (%) ([3]; incidence of worsening fractures): 1.8%
- No. with fractures ([3]; worsening fractures): 1
- Adverse events: No (%) [4]: 4.4%
- Adverse events: No, No. of cases [4]: 2
- Adverse events: Point estimate of the difference [4]: 2.0
- Adverse events: Yes, No. of cases [4]: 65
- No. with fractures (persons) ([5]; high-risk patients, 5 units once a week): 6 persons
- No. with fractures (persons) ([5]; high-risk patients, 100 units once a week): 1 persons
- No. with fractures (persons) ([5]; low-risk patients, 5 units once a week): 1 persons
- No. with fractures (persons) ([5]; low-risk patients, 100 units once a week): 0 persons
- Side effects: No, No. of cases [6]: 27
- Side effects: Yes, No. of cases [6]: 22
- Occurrence of new vertebral fractures after 48 weeks ([7]; 48 to 72 weeks division, 200 units once a week): no new vertebral fractures occurred after 48 weeks
- New vertebral fractures, No. with fractures ([7]; FAS, No. evaluated 261): 7
- Difference between PTH200 group and P group after 72 W (%) ([7]; FAS, incidence of new vertebral fractures after 72 W): 11.4%
- New vertebral fractures: Incidence (%) [7, 9]: 0.0%
- New vertebral fractures: No. of subjects [7, 9]: 0
- New vertebral fractures: Incidence (%) [7, 10]: 0.0%
- New vertebral fractures: No. of subjects [7, 10]: 0
- New vertebral fractures: Incidence (%) [7, 11]: 1.9%
- New vertebral fractures: No. of subjects [7, 11]: 5
- New vertebral fractures: Incidence (%) [7, 12]: 0.0%
- New vertebral fractures: No. of subjects [7, 12]: 0
- New vertebral fractures: Incidence (%) [7, 13]: 0.8%
- New vertebral fractures: No. of subjects [7, 13]: 2
- New vertebral fractures, No. with fractures ([7]; Time after administration >24 W-≦48 W, No. evaluated 219): 2
- New vertebral fractures, No. with fractures ([7]; Time after administration >48 W-≦72 W, No. evaluated 206): 0
- New vertebral fractures, No. with fractures ([7]; Time after administration ≦24 W, No. evaluated 261): 6
- Incidence of new vertebral fractures (%) ([7]; creatinine clearance at start Abnormal (<80), After 24 W, 200 units once a week): 2.8%
- Incidence of new vertebral fractures (%) ([7]; creatinine clearance at start Abnormal (<80), After 48 W, 200 units once a week): 3.4%
- Incidence of new vertebral fractures (%) ([7]; creatinine clearance at start Abnormal (<80), After 72 W, 200 units once a week): 3.4%
- Incidence of new vertebral fractures (%) ([7]; creatinine clearance at start Normal (≧80), After 24 W, 200 units once a week): 0.0%
- Incidence of new vertebral fractures (%) ([7]; creatinine clearance at start Normal (≧80), After 48 W, 200 units once a week): 0.0%
- Incidence of new vertebral fractures (%) ([7]; creatinine clearance at start Normal (≧80), After 72 W, 200 units once a week): 0.0%
- New vertebral fractures: No [7, 14]: 62
- New vertebral fractures: Yes [7, 14]: 1
- New vertebral fractures: No [7, 15]: 7
- New vertebral fractures: Yes [7, 15]: 1
- New vertebral fractures: No [7, 16]: 28
- New vertebral fractures: Yes [7, 16]: 1
- New vertebral fractures: No [7, 17]: 8
- New vertebral fractures: Yes [7, 17]: 0
- New vertebral fractures: No [7, 18]: 35
- New vertebral fractures: Yes [7, 18]: 2
- New vertebral fractures: No [7, 19]: 6
- New vertebral fractures: Yes [7, 19]: 0
- New vertebral fractures: No [7, 20]: 20
- New vertebral fractures: Yes [7, 20]: 0
- No. with fractures ([7]; Complication (diabetes): No, 200 units once a week): 7
- No. with fractures ([7]; Complication (diabetes): Yes, 200 units once a week): 0
- No. with fractures ([7]; Complication (hyperlipidemia): No, 200 units once a week): 4
- No. with fractures ([7]; Complication (hyperlipidemia): Yes, 200 units once a week): 3
- No. with fractures ([7]; Complication (hypertension): No, 200 units once a week): 3
- No. with fractures ([7]; Complication (hypertension): Yes, 200 units once a week): 4
- No. with fractures ([7]; Prior osteoporosis treatment (no), 200 units once a week): 4
- No. with fractures ([7]; Prior osteoporosis treatment (yes), 200 units once a week): 3
- No. with fractures ([7]; creatinine clearance at start Abnormal (<80), 200 units once a week): 6
- No. with fractures ([7]; creatinine clearance at start Normal (≧80), 200 units once a week): 0
- Existence of new vertebral fractures, Fracture: no [7, 21]: 29
- Existence of new vertebral fractures, Fracture: yes [7, 21]: 0
- Incidence of multiple vertebral fractures [7, 22]: 0.8%
- Multiple vertebral fractures (number of cases) [7, 22]: 2 cases
- Incidence of vertebral fractures (new±worsening) by Kaplan-Meier estimation [8]: 3.5%
